# According to US10765114B2, “4-amino-6-(pyridyl and 2-substitutedphenyl)-picolinates and 6-amino-2-(pyridyl and 2-substitutedphenyl)-pyrimidine-4-carboxylates and their use as herbicides” (Dow AgroSciences LLC, priority 2013, dated 2020):
# Read-outs that look alike come from different tables or passages of the source.
# Legend:
# [1] = system: Key Broadleaf Weed and Crop Species; test: Post-Emergent Test II (Table 5); format: in vivo; conditions: post-emergence, 336 h; for pest or weed control at 70 g/ha: application rate 70 (kg ai/ha; footnote: g ai/ha); for pest or weed control at 140 g/ha: application rate 140 (kg ai/ha; footnote: g ai/ha)
# In short: (§1)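 Post-emergence greenhouse spray, 1st-2nd true leaf stage; track sprayer, 187 L/ha; acetone/DMSO stock diluted in aqueous acetone/IPA/DMSO with Atplus 411F and Triton X-155; rates 1× to 1/16×; subirrigated; visual injury 0 (none) to 100% (complete kill) at 14 days.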
# [2] = system: Key Grass and Sedge Weeds as well as Grass Crops; test: Post-Emergent Test II (Table 6); format: in vivo; conditions: post-emergence, 336 h, 14 days after application; for pest or weed control at 70 g/ha: 70 g ai/ha; for pest or weed control at 140 g/ha: 140 g ai/ha
# In short: as §1
# [3] = Abutilon theophrasti, ABUTH: velvetleaf (Abutilon theophrasti), read-out: Visual Growth Reduction (%) 14 Days After Application ABUTH
# [4] = Amaranthus retroflexus, AMARE: redroot pigweed (Amaranthus retroflexus), read-out: Visual Growth Reduction (%) 14 Days After Application AMARE
# [5] = Brassica napus, BRSSS: oilseed rape, canola (Brassica napus), read-out: Visual Growth Reduction (%) 14 Days After Application BRSSS
# [6] = Chenopodium album, CHEAL: lambsquarters (Chenopodium album), read-out: Visual Growth Reduction (%) 14 Days After Application CHEAL
# [7] = Euphorbia heterophylla, EPHHL: wild poinsettia (Euphorbia heterophylla), read-out: Visual Growth Reduction (%) 14 Days After Application EPHHL
# [8] = Helianthus annuus, HELAN: sunflower (Helianthus annuus), read-out: Visual Growth Reduction (%) 14 Days After Application HELAN
# [9] = Viola tricolor, VIOTR: wild pansy (Viola tricolor), read-out: Visual Growth Reduction (%) 14 Days After Application VIOTR
# [10] = CYPSS, read-out: Visual Growth Reduction (%) 14 Days After Application CYPSS
# [11] = DIGSA: crabgrass (Digitaria sanguinalis), read-out: Visual Growth Reduction (%) 14 Days After Application DIGSA
# [12] = ECHSS, read-out: Visual Growth Reduction (%) 14 Days After Application ECHSS
# [13] = ORYSS (crop), read-out: Visual Growth Reduction (%) 14 Days After Application ORYSS
# [14] = SETFA: giant foxtail (Setaria faberi), read-out: Visual Growth Reduction (%) 14 Days After Application SETFA
# [15] = SORVU: grain sorghum (Sorghum vulgare), read-out: Visual Growth Reduction (%) 14 Days After Application SORVU
# [16] = TRZSS (crop), read-out: Visual Growth Reduction (%) 14 Days After Application TRZSS
# [17] = ZEAMX: maize, corn (Zea mays), read-out: Visual Growth Reduction (%) 14 Days After Application ZEAMX
Structure (SMILES),"pest or weed control at 70 g/ha [1, 3]","pest or weed control at 140 g/ha [1, 3]","pest or weed control at 70 g/ha [1, 4]","pest or weed control at 140 g/ha [1, 4]","pest or weed control at 70 g/ha [1, 5]","pest or weed control at 140 g/ha [1, 5]","pest or weed control at 70 g/ha [1, 6]","pest or weed control at 140 g/ha [1, 6]","pest or weed control at 70 g/ha [1, 7]","pest or weed control at 140 g/ha [1, 7]","pest or weed control at 70 g/ha [1, 8]","pest or weed control at 140 g/ha [1, 8]","pest or weed control at 70 g/ha [1, 9]","pest or weed control at 140 g/ha [1, 9]","pest or weed control at 70 g/ha [2, 10]","pest or weed control at 140 g/ha [2, 10]","pest or weed control at 70 g/ha [2, 11]","pest or weed control at 140 g/ha [2, 11]","pest or weed control at 70 g/ha [2, 12]","pest or weed control at 140 g/ha [2, 12]",also measured
"COC(=O)c1nc(-c2ccc(Cl)nc2Cl)cc(N)c1Cl [Compound 15, methyl 4-amino-2′,5,6′-trichloro-[2,3′-bipyridine]-6-carboxylate]",75 to 84%,85 to 94%,95 to 100%,95 to 100%,60 to 74%,75 to 84%,85 to 94%,85 to 94%,0 to 29%,0 to 29%,85 to 94%,95 to 100%,30 to 44%,30 to 44%,0 to 29%,0 to 29%,0 to 29%,0 to 29%,0 to 29%,0 to 29%,"pest or weed control at 70 g/ha [2, 13]: 0 to 29%; pest or weed control at 140 g/ha [2, 13]: 0 to 29%; pest or weed control at 70 g/ha [2, 14]: 0 to 29%; pest or weed control at 140 g/ha [2, 14]: 0 to 29%; pest or weed control at 70 g/ha [2, 15]: 0 to 29%; pest or weed control at 140 g/ha [2, 15]: 0 to 29%; pest or weed control at 70 g/ha [2, 16]: 0 to 29%; pest or weed control at 140 g/ha [2, 16]: 0 to 29%; pest or weed control at 70 g/ha [2, 17]: 0 to 29%; pest or weed control at 140 g/ha [2, 17]: 0 to 29%; melting point: 231 °C"
"COc1c(N)nc(-c2ccc(C(F)(F)F)nc2)nc1C(=O)O [Compound 5, 6-amino-5-methoxy-2-(6-(trifluoromethyl)pyridin-3-yl)pyrimidine-4-carboxylic acid]",0 to 29%,0 to 29%,75 to 84%,85 to 94%,85 to 94%,85 to 94%,0 to 29%,45 to 59%,85 to 94%,95 to 100%,60 to 74%,75 to 84%,0 to 29%,30 to 44%,0 to 29%,0 to 29%,60 to 74%,75 to 84%,85 to 94%,85 to 94%,"pest or weed control at 70 g/ha [2, 13]: 0 to 29%; pest or weed control at 140 g/ha [2, 13]: 0 to 29%; pest or weed control at 70 g/ha [2, 14]: 0 to 29%; pest or weed control at 140 g/ha [2, 14]: 30 to 44%; pest or weed control at 70 g/ha [2, 15]: 0 to 29%; pest or weed control at 140 g/ha [2, 15]: 0 to 29%; pest or weed control at 70 g/ha [2, 16]: 0 to 29%; pest or weed control at 140 g/ha [2, 16]: 30 to 44%; pest or weed control at 70 g/ha [2, 17]: 0 to 29%; pest or weed control at 140 g/ha [2, 17]: 0 to 29%; melting point: 188 °C"
